From PubChem BioAssay (NCI)
Several values for one entry are separate records, joined by “and”; a condition that tells them apart may be missing. Equal entries are not always repeated.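 Five concentrations, 48 hours, 96-well plates. The concentration for full growth arrest is given as TGI.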

Tests used:
Assay in all cases: NCI-60 cell line screen, 48 h
HL-60(TB) leukemia = tested on: HL-60(TB) leukemia
BT-549 breast = tested on: BT-549 breast
IGROV1 ovarian = tested on: IGROV1 ovarian
HOP-62 NSCLC = tested on: HOP-62 NSCLC
SF-268 CNS = tested on: SF-268 CNS
HOP-92 NSCLC = tested on: HOP-92 NSCLC
CAKI-1 renal = tested on: CAKI-1 renal
A498 renal = tested on: A498 renal
SK-OV-3 ovarian = tested on: SK-OV-3 ovarian

CC1SC2(CCCCC2)N(NC(=O)CSc2nc3ccc(Cl)cc3c(=O)n2-c2ccccc2)C1=O (configuration not stated)
TGI (HL-60(TB) leukemia): 51 µM | TGI (BT-549 breast): 36.4 µM | TGI (IGROV1 ovarian): 39.4 µM | TGI (HOP-62 NSCLC): 34.3 µM | TGI (SF-268 CNS): 54.8 µM | TGI (HOP-92 NSCLC): 52.5 µM | TGI (CAKI-1 renal): > 100 µM | TGI (A498 renal): 81.2 µM | TGI (SK-OV-3 ovarian): > 100 µM

CC(=O)C(C(C)=O)[C@@H]1OC(C)(C)O[C@@H]1[C@H]1COC(C)(C)O1
TGI (HL-60(TB) leukemia): > 100 µM | TGI (BT-549 breast): > 100 µM | TGI (IGROV1 ovarian): > 100 µM | TGI (HOP-62 NSCLC): > 100 µM | TGI (SF-268 CNS): > 100 µM | TGI (HOP-92 NSCLC): > 100 µM | TGI (CAKI-1 renal): > 100 µM | TGI (A498 renal): > 100 µM

CCCCc1ccc(Nc2nc(Cl)c3ccn(C4CC(Oc5ccc(C)cc5)C(COc5ccc(C)cc5)O4)c3n2)cc1 (configuration not stated)
TGI (HL-60(TB) leukemia): > 46.4 µM | TGI (BT-549 breast): 17.3 µM | TGI (IGROV1 ovarian): 29.5 µM | TGI (HOP-62 NSCLC): > 100 µM | TGI (SF-268 CNS): > 100 µM | TGI (HOP-92 NSCLC): > 46.4 µM | TGI (CAKI-1 renal): > 46.4 µM | TGI (A498 renal): > 46.4 µM | TGI (SK-OV-3 ovarian): > 46.4 µM

Nn1c(=O)[nH]c2ncn(Cc3ccccc3)c2c1=O
TGI (HL-60(TB) leukemia): > 100 µM | TGI (BT-549 breast): > 100 µM | TGI (IGROV1 ovarian): > 100 µM | TGI (HOP-62 NSCLC): > 100 µM | TGI (SF-268 CNS): > 100 µM | TGI (HOP-92 NSCLC): > 100 µM | TGI (CAKI-1 renal): > 100 µM | TGI (A498 renal): > 100 µM | TGI (SK-OV-3 ovarian): > 100 µM

COC(=O)[C@]1(c2cc3ccccc3[nH]2)CC2CN(C(=O)OCc3ccccc3)C1CC2=O (some centres not stated)
TGI (HL-60(TB) leukemia): 44.4 µM | TGI (BT-549 breast): 95.5 µM | TGI (IGROV1 ovarian): > 100 µM | TGI (HOP-62 NSCLC): > 100 µM | TGI (SF-268 CNS): > 100 µM | TGI (HOP-92 NSCLC): 87.8 µM | TGI (CAKI-1 renal): > 100 µM | TGI (A498 renal): 42.9 µM | TGI (SK-OV-3 ovarian): > 100 µM

O=C(CN1CCCCC1)Nc1ccc2c(c1)C1Oc3ccccc3CC1CO2 (configuration not stated)
TGI (HL-60(TB) leukemia): > 100 µM | TGI (BT-549 breast): 44.6 µM | TGI (IGROV1 ovarian): 58 µM | TGI (HOP-62 NSCLC): 34.1 µM | TGI (SF-268 CNS): > 100 µM | TGI (HOP-92 NSCLC): 54.7 µM | TGI (CAKI-1 renal): > 100 µM | TGI (A498 renal): 62.8 µM | TGI (SK-OV-3 ovarian): 81.9 µM

CCCCc1ccc(Nc2nc(Cl)c3c(ncn3C3CC(Oc4ccc(C)cc4)C(COc4ccc(C)cc4)O3)n2)cc1 (configuration not stated)
TGI (HL-60(TB) leukemia): > 100 µM | TGI (BT-549 breast): > 100 µM | TGI (IGROV1 ovarian): > 100 µM | TGI (HOP-62 NSCLC): > 100 µM | TGI (SF-268 CNS): > 100 µM | TGI (HOP-92 NSCLC): > 100 µM | TGI (CAKI-1 renal): > 100 µM | TGI (A498 renal): > 100 µM | TGI (SK-OV-3 ovarian): > 100 µM

O=[N+]([O-])c1cc2ccc(N(CCO)CCO)nc2nc1N(CCO)CCO
TGI (HL-60(TB) leukemia): > 100 µM | TGI (BT-549 breast): > 100 µM | TGI (IGROV1 ovarian): > 100 µM | TGI (HOP-62 NSCLC): > 100 µM | TGI (SF-268 CNS): > 100 µM | TGI (HOP-92 NSCLC): > 100 µM | TGI (CAKI-1 renal): > 100 µM | TGI (A498 renal): > 100 µM | TGI (SK-OV-3 ovarian): > 100 µM

O=C(C/C(=N/O)C(F)(F)F)c1cccs1
TGI (HL-60(TB) leukemia): > 100 µM | TGI (BT-549 breast): > 100 µM | TGI (IGROV1 ovarian): > 100 µM | TGI (HOP-62 NSCLC): > 100 µM | TGI (SF-268 CNS): > 100 µM | TGI (HOP-92 NSCLC): > 100 µM | TGI (CAKI-1 renal): > 100 µM | TGI (A498 renal): > 100 µM | TGI (SK-OV-3 ovarian): > 100 µM

CC(C(=O)c1ccncc1)c1ccccn1 (configuration not stated)
TGI (HL-60(TB) leukemia): > 100 µM | TGI (BT-549 breast): > 100 µM | TGI (IGROV1 ovarian): > 100 µM | TGI (HOP-62 NSCLC): > 100 µM | TGI (SF-268 CNS): > 100 µM | TGI (HOP-92 NSCLC): > 100 µM | TGI (CAKI-1 renal): > 100 µM | TGI (A498 renal): > 100 µM | TGI (SK-OV-3 ovarian): > 100 µM

Cc1cc2c(cc1C)C(=O)C1(C2)Cc2cc3c(cc2C1=O)CCC3 (configuration not stated)
TGI (HL-60(TB) leukemia): > 100 µM | TGI (BT-549 breast): > 100 µM | TGI (IGROV1 ovarian): > 100 µM | TGI (SF-268 CNS): > 100 µM | TGI (HOP-92 NSCLC): > 100 µM | TGI (CAKI-1 renal): > 100 µM | TGI (A498 renal): > 100 µM | TGI (SK-OV-3 ovarian): > 100 µM

Cc1ccc(N=Nc2c(O)ccc3cc(S(=O)(=O)O)ccc23)cc1
TGI (HL-60(TB) leukemia): > 100 µM | TGI (BT-549 breast): > 100 µM | TGI (IGROV1 ovarian): > 100 µM | TGI (HOP-62 NSCLC): > 100 µM | TGI (SF-268 CNS): > 100 µM | TGI (HOP-92 NSCLC): > 100 µM | TGI (CAKI-1 renal): > 100 µM and 80.8 µM | TGI (A498 renal): > 100 µM | TGI (SK-OV-3 ovarian): > 100 µM

COc1ccc(NC(C(N)=O)c2cc3cc(Br)ccc3nc2Cl)cc1 (configuration not stated)
TGI (HL-60(TB) leukemia): > 100 µM | TGI (BT-549 breast): > 100 µM | TGI (IGROV1 ovarian): > 100 µM | TGI (HOP-62 NSCLC): > 100 µM | TGI (SF-268 CNS): > 100 µM | TGI (HOP-92 NSCLC): 99.7 µM | TGI (CAKI-1 renal): > 100 µM | TGI (A498 renal): > 100 µM | TGI (SK-OV-3 ovarian): > 100 µM

CCOC(=O)/C=C(\C(=O)OCC)n1cc(Cl)c(=O)n(CC(=O)OCC)c1=O
TGI (HL-60(TB) leukemia): 7.39 µM | TGI (BT-549 breast): 35.5 µM | TGI (IGROV1 ovarian): 25.9 µM | TGI (HOP-62 NSCLC): 33.7 µM | TGI (SF-268 CNS): 32.7 µM | TGI (HOP-92 NSCLC): 5.28 µM | TGI (CAKI-1 renal): 5.27 µM | TGI (A498 renal): 34.9 µM | TGI (SK-OV-3 ovarian): 33.9 µM

O=c1c2cnccc2cc2c3ccccc3ccn12
TGI (HL-60(TB) leukemia): > 100 µM | TGI (BT-549 breast): > 100 µM | TGI (IGROV1 ovarian): 33.3 µM | TGI (HOP-62 NSCLC): > 100 µM | TGI (SF-268 CNS): > 100 µM | TGI (HOP-92 NSCLC): > 100 µM | TGI (CAKI-1 renal): > 100 µM | TGI (A498 renal): > 100 µM | TGI (SK-OV-3 ovarian): > 100 µM

CCCCSC1=N/C(=C\c2ccc(N(C)C)cc2)C(=O)N1
TGI (HL-60(TB) leukemia): > 100 µM | TGI (BT-549 breast): > 100 µM | TGI (IGROV1 ovarian): > 100 µM | TGI (HOP-62 NSCLC): > 100 µM | TGI (SF-268 CNS): > 100 µM | TGI (HOP-92 NSCLC): 96.2 µM | TGI (CAKI-1 renal): > 100 µM | TGI (A498 renal): 40.4 µM | TGI (SK-OV-3 ovarian): > 100 µM
